Source: article PMC5216056 (Nature Communications, 2017)
Where two headings read alike, the source gives them in different places.

Legend:
hCB1R [1] = biological target: T1, hCB1R (Homo sapiens, UniProt P21554); assay: biochemical; format: binding; conditions: CHO membranes; Leiden, HU210 and SR144528 from Roche
T1 construct: host or cells: CHO

hCB1R [2] = biological target: T1, hCB1R; assay: cell-based; format: cell-based
[3] = tested on: AEA cellular uptake in HMC-1 cells; assay: cells; format: cell-based, human; conditions: read-out: AEA reuptake IC50 (95% CI) HMC-1 cells; FAAH-deficient cells
A3 (h) = biological target: T2, A3 (h) (Homo sapiens, UniProt P0DMS8); assay: CEREP panel; format: binding; conditions: 10 µM
T2 construct: CEREP
T2 sequence (P0DMS8 1-318): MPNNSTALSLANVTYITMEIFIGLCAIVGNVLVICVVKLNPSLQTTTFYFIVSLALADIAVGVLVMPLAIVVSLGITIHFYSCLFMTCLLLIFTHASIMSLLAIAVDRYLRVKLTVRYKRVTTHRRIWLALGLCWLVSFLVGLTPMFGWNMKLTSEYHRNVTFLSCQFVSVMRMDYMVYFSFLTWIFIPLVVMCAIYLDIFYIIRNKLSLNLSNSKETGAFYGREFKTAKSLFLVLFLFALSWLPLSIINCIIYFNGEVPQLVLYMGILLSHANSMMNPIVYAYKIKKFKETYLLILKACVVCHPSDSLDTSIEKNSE

alpha 2A (h) = biological target: T3, alpha 2A (h) (Homo sapiens, UniProt P08913); assay: CEREP panel; format: binding; conditions: 10 µM
T3 construct: CEREP
T3 sequence (P08913 1-465): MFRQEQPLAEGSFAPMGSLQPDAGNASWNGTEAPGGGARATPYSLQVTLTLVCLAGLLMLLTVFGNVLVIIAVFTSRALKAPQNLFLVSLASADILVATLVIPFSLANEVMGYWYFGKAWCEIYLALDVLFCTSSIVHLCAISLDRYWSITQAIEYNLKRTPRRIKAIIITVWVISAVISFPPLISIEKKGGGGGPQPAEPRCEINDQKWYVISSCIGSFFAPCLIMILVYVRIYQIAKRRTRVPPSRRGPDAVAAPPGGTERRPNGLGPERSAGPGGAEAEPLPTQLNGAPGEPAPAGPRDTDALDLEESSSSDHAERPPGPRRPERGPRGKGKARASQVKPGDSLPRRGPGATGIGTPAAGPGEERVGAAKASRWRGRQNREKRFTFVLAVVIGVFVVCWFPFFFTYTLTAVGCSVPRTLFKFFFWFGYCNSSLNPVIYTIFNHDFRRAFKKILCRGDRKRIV

MT3 (ML2) = biological target: T4, MT3 (ML2) (Mesocricetus auratus, UniProt A0ABM2YAB8); assay: CEREP panel; format: binding; conditions: for % inhibition MT3 (ML2): 10 µM
T4 construct: CEREP (contract assay)
T4 sequence (A0ABM2YAB8 1-231): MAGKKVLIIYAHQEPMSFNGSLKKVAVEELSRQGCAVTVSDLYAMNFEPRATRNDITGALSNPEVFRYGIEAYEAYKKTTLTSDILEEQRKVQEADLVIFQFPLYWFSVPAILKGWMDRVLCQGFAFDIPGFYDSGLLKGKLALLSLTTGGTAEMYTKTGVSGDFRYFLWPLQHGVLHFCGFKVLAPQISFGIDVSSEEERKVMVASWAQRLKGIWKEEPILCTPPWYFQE

Na+ channel (site 2) = format: binding; conditions: 10 µM
sst4 (h) = biological target: T5, sst4 (h) (Homo sapiens, UniProt P31391); assay: CEREP panel; format: binding; conditions: for % inhibition sst4 (h): 10 µM
T5 construct: CEREP (contract assay)

hCB2R = hCB2R (Homo sapiens, UniProt P34972); parameters: expressed in transfected cells; host or cells: Flp-In-293 (Invitrogen #R750-07), pcDNA5/FRT
FP (h) = biological target: T6, FP (h) (Homo sapiens, UniProt P43088); assay: CEREP panel; format: binding; conditions: for % inhibition FP (h): 10 µM
T6 construct: CEREP (contract assay)
T6 sequence (P43088 whole entry): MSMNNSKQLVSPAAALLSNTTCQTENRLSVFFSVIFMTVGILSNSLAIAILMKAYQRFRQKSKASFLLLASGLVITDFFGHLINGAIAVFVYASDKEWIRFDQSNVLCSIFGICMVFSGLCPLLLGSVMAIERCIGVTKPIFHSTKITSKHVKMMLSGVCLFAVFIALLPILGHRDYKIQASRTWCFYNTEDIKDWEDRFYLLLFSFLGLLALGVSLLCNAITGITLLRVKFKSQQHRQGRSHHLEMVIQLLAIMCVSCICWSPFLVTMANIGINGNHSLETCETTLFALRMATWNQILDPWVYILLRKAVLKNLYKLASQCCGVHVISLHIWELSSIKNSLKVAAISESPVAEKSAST

Sequence of hCB2R (P34972 whole entry): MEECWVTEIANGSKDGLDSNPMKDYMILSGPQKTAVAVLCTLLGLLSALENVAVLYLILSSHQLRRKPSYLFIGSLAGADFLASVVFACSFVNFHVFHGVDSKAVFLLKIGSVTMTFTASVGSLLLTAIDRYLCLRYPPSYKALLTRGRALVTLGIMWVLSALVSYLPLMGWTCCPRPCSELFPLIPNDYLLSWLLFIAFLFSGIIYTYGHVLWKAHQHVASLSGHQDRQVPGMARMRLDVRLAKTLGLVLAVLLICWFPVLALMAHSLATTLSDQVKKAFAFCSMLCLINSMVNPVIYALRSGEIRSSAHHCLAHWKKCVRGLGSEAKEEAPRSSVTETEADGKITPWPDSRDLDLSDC
T5 sequence (P31391 whole entry): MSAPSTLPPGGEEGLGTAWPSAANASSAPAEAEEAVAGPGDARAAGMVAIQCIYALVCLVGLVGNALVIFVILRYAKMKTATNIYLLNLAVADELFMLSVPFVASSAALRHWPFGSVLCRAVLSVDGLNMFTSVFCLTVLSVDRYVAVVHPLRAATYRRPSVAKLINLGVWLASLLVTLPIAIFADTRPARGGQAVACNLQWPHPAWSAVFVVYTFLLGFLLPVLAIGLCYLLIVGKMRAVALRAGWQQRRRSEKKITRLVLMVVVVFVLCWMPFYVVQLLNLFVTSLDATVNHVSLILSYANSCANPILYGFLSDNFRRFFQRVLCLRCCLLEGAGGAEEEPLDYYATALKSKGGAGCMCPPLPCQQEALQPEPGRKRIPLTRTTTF
T1 sequence (P21554 whole entry): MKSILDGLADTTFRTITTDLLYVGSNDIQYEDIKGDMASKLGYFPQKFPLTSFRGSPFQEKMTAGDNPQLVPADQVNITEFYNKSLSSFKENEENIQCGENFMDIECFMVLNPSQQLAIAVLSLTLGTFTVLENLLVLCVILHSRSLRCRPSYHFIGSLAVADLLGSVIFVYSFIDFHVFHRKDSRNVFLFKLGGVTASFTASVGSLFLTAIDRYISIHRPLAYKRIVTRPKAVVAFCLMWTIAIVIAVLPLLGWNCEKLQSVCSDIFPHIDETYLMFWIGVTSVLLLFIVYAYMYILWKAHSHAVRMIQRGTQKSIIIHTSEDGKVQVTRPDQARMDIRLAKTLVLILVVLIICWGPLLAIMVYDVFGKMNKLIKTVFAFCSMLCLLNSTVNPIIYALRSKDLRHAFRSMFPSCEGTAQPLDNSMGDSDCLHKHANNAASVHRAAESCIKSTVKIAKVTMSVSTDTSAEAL

SMILES: CN1CCCC[C@H]1Cn1cc(C(=O)c2cc([N+](=O)[O-])ccc2I)c2ccccc21 [(S)-AM1241]
- pKi ± SEM hCB1R (hCB1R [1]): < 5
- Emax ± SEM β-AR recruitment hCB1R (hCB1R [2]): 2 ± 1
- pEC50 ± SEM β-AR recruitment hCB1R (hCB1R [2]): < 5
- IC50 [3]: > 5 µM
- % inhibition A3 (h) (A3 (h)): 42%
- % inhibition alpha 2A (h) (alpha 2A (h)): 10%
- % inhibition MT3 (ML2) (MT3 (ML2)): 49%
- % inhibition Na+ channel (site 2) (Na+ channel (site 2)): 87%
- % inhibition sst4 (h) (sst4 (h)): 63%
- GIRK-GTPγS bias factor (BF) (hCB2R; hCB2R): 0.16
- GIRK-GTPγS ΔΔlogR (hCB2R; hCB2R): -0.79
- LogR GIRK (hCB2R; hCB2R): 5.70
- LogR GTPγS (hCB2R; hCB2R): 6.9
- LogR pERK (hCB2R; hCB2R): 7.54
- LogR β-AR (hCB2R; hCB2R): 5.97
- pERK-GIRK bias factor (BF) (hCB2R; hCB2R): 4.72
- pERK-GIRK ΔΔlogR (hCB2R; hCB2R): 0.68 ± 0.37
- pERK-GTPγS bias factor (BF) (hCB2R; hCB2R): 0.77
- pERK-GTPγS ΔΔlogR (hCB2R; hCB2R): -0.11
- β-AR-GIRK bias factor (BF) (hCB2R; hCB2R): 0.43
- β-AR-GIRK ΔΔlogR (hCB2R; hCB2R): -0.37 ± 0.33
- β-AR-GTPγS bias factor (BF) (hCB2R; hCB2R): 0.07
- β-AR-GTPγS ΔΔlogR (hCB2R; hCB2R): -1.16 ± 0.57
- β-AR-pERK bias factor (BF) (hCB2R; hCB2R): 0.09
- β-AR-pERK ΔΔlogR (hCB2R; hCB2R): -1.05 ± 0.44
- ΔLogR GIRK (hCB2R; hCB2R, reference CP55940): -2.17
- ΔLogR GTPγS (hCB2R; hCB2R, reference CP55940): -1.38
- ΔLogR pERK (hCB2R; hCB2R, reference CP55940): -1.49
- ΔLogR β-AR (hCB2R; hCB2R, reference CP55940): -2.54
- RE GIRK (hCB2R; hCB2R, relative effectiveness): 0.01
- RE GTPγS (hCB2R; hCB2R, relative effectiveness): 0.04
- RE pERK (hCB2R; hCB2R, relative effectiveness): 0.03
- RE β-AR (hCB2R; hCB2R, relative effectiveness): 0.003

SMILES: Cc1c(C(=O)NN2CCCCC2)nn(-c2ccc(Cl)cc2Cl)c1-c1ccc(I)cc1 [AM251]
- % inhibition A3 (h) (A3 (h)): 93%
- % inhibition alpha 2A (h) (alpha 2A (h)): 30%
- % inhibition FP (h) (FP (h)): 94%
- % inhibition sst4 (h) (sst4 (h)): 51%

SMILES: COc1ccc(C(=O)c2c(C)n(CCN3CCOCC3)c3cc(I)ccc23)cc1 [AM630]
- IC50 [3]: > 10 µM
- % inhibition A3 (h) (A3 (h)): 76%
- % inhibition alpha 2A (h) (alpha 2A (h)): -5%
- % inhibition FP (h) (FP (h)): 66%

SMILES: CCCCCCC(C)(C)c1ccc([C@@H]2C[C@H](O)CC[C@H]2CCCO)c(O)c1 [CP55940]
- Emax (hCB1R [2]; read-out: Emax ± SEM β-AR recruitment hCB1R): 94 ± 2%
- inhibition at 10 µM (A3 (h); read-out: % inhibition A3 (h)): 98%
- inhibition at 10 µM (alpha 2A (h); read-out: % inhibition alpha 2A (h)): 23%
- inhibition at 10 µM (MT3 (ML2); read-out: % inhibition MT3 (ML2)): 22%
- % inhibition Na+ channel (site 2) (Na+ channel (site 2)): 71%
- inhibition at 10 µM (FP (h)): 100%
- inhibition at 10 µM (sst4 (h)): 63%
- GIRK-GTPγS bias factor (BF) (hCB2R): 1.00
- GIRK-GTPγS ΔΔlogR (hCB2R): 0 ± 0.34
- GIRK-cAMP bias factor (BF) (hCB2R): 1.00
- GIRK-cAMP ΔΔlogR (hCB2R): 0 ± 0.12
- GTPγS-cAMP bias factor (BF) (hCB2R): 1.00
- GTPγS-cAMP ΔΔlogR (hCB2R): 0 ± 0.34
- LogR GIRK (hCB2R): 7.863
- RE GIRK (hCB2R): 1.00
- RE GTPγS (hCB2R): 1.00
- RE cAMP (hCB2R): 1.00
- RE pERK (hCB2R): 1.00
- RE β-AR (hCB2R): 1.00
- pERK-GIRK bias factor (BF) (hCB2R): 1.00
- pERK-GIRK ΔΔlogR (hCB2R): 0 ± 0.25
- pERK-GTPγS bias factor (BF) (hCB2R): 1.00
- pERK-GTPγS ΔΔlogR (hCB2R): 0 ± 0.41
- pERK-cAMP bias factor (BF) (hCB2R): 1.00
- pERK-cAMP ΔΔlogR (hCB2R): 0 ± 0.26
- ΔLogR GIRK (hCB2R): 0 ± 0.07
- ΔLogR GTPγS (hCB2R): 0 ± 0.33
- ΔLogR cAMP (hCB2R): 0 ± 0.09
- ΔLogR pERK (hCB2R): 0 ± 0.24
- ΔLogR β-AR (hCB2R): 0 ± 0.07
- β-AR-GIRK bias factor (BF) (hCB2R): 1.00
- β-AR-GIRK ΔΔlogR (hCB2R): 0 ± 0.1
- β-AR-GTPγS bias factor (BF) (hCB2R): 1.00
- β-AR-GTPγS ΔΔlogR (hCB2R): 0 ± 0.34
- β-AR-cAMP bias factor (BF) (hCB2R): 1.00
- β-AR-cAMP ΔΔlogR (hCB2R): 0 ± 0.12
- β-AR-pERK bias factor (BF) (hCB2R): 1.00
- β-AR-pERK ΔΔlogR (hCB2R): 0 ± 0.25

SMILES: Cc1ccc2c(c1)Cc1c(C(=O)NN3CCCCC3)nn(-c3ccc(Cl)cc3Cl)c1-2 [Gp-1a]
- pKi ± SEM hCB1R (hCB1R [1]): 6.97 ± 0.35
- Emax ± SEM β-AR recruitment hCB1R (hCB1R [2]): -83 ± 7
- pEC50 ± SEM β-AR recruitment hCB1R (hCB1R [2]): < 5
- IC50 [3]: > 5 µM
- % inhibition A3 (h) (A3 (h)): 95%
- % inhibition alpha 2A (h) (alpha 2A (h)): 30%
- % inhibition MT3 (ML2) (MT3 (ML2)): 33%
- % inhibition Na+ channel (site 2) (Na+ channel (site 2)): 40%
- % inhibition FP (h) (FP (h)): 88%

SMILES: Cc1c(C(=O)c2cccc3ccccc23)c2cccc3c2n1[C@H](CN1CCOCC1)CO3 [WIN55212-2]
- IC50 [3]: > 5 µM
- % inhibition A3 (h) (A3 (h)): 84%
- % inhibition alpha 2A (h) (alpha 2A (h)): 0%
- % inhibition MT3 (ML2) (MT3 (ML2)): 69%
- % inhibition Na+ channel (site 2) (Na+ channel (site 2)): 68%
- % inhibition FP (h) (FP (h)): 81%
- % inhibition sst4 (h) (sst4 (h)): 64%
